Test results taken from US20220144854A1, “MACROCYCLIC COMPOUNDS” (ZENO MANAGEMENT, INC., priority 2019, published 2022).
pIC50: −log10 of the molar value.

What follows are molecules tested on NCI-H929 (ATCC CRL-9068) cells (assay: NCI-H929 cell proliferation assay (CellTiter-Glo)). Settings: 72 h of compound treatment.
Assay type: cell-based
Method: Cell proliferation was measured using the CellTiter-Glo® Luminescent Cell Viability Assay. The assay involved the addition of a single reagent (CellTiter-Glo® Reagent) directly to cells cultured in serum-supplemented medium.
Each compound evaluated was prepared as a DMSO stock solution (10 mM). Compounds were tested in duplicate on each plate, with a 10-point serial dilution curve (1:3 dilution). Compound treatment ([…]) was added from the compound dilution plate to the cell plate. The highest compound concentration was 10 μM (final), with a 0.1% final DMSO concentration. Plates were then incubated at 37° C., 5% CO2. After 72 h of compound treatment, cell plates were equilibrated at rt for approximately 30 mins. An equi-volume amount of CellTiter-Glo® Reagent (40 μL) was added to each well. Plates were mixed for 2 mins on an orbital shaker to induce cell lysis and then incubated at rt for 10 mins to stabilize the luminescent signal. Luminescence was recorded using an Envision plate reader according to CellTiter-Glo protocol. IC50 of each compound was calculated using GraphPad Prism by nonlinear regression analysis.

Molecule	pIC50
Cn1nc2cc1CSc1cc(c3ccccc3c1)OCCCc1c(C(=O)O)n(C)c3c(c(Cl)ccc13)-c1c(nn(C)c1C#N)CSC2 (single isomer, unassigned) [Example 1A, (Z)-1^6-Chloro-2^5-cyano-1^1,2^1,6^1-trimethyl-1^1H,2^1H,6^1H-10-oxa-4,8-dithia-1(7,3)-indola-2(4,3),6(3,5)-dipyrazola-9(3,1)-naphthalenacyclotridecaphane-1^2-carboxylic acid]	6.00 to 7.00
Cn1nc2cc1CSc1cc(c3ccccc3c1)OCCCc1c(C(=O)O)n(C)c3c(c(Cl)ccc13)-c1c(nn(C)c1C#N)CSC2 (single isomer, unassigned) [Example 1B, (Z)-1^6-Chloro-2^5-cyano-1^1,2^1,6^1-trimethyl-1^1H,2^1H,6^1H-10-oxa-4,8-dithia-1(7,3)-indola-2(4,3),6(3,5)-dipyrazola-9(3,1)-naphthalenacyclotridecaphane-1^2-carboxylic acid]	< 6.00
Cn1nc2cc1CSc1cc(c3ccccc3c1)OCCCc1c(C(=O)O)n(C)c3c(c(Cl)ccc13)-c1c(nn3c1CCCC3)CSC2 (single isomer, unassigned) [Example 2A, (Z)-1^6-Chloro-1^1,6^1-dimethyl-2^4,2^5,2^6,2^7-tetrahydro-1^1H,6^1H-10-oxa-4,8-dithia-2(3,2)-pyrazolo[1,5-a]pyridina-1(7,3)-indola-6(3,5)-pyrazola-9(3,1)-naphthalenacyclotridecaphane-1^2-carboxylic acid]	> 7.00
Cn1nc2cc1CSc1cc(c3ccccc3c1)OCCCc1c(C(=O)O)n(C)c3c(c(Cl)ccc13)-c1c(nn3c1CCCC3)CSC2 (single isomer, unassigned) [Example 2B, (Z)-1^6-Chloro-1^1,6^1-dimethyl-2^4,2^5,2^6,2^7-tetrahydro-1^1H,6^1H-10-oxa-4,8-dithia-2(3,2)-pyrazolo[1,5-a]pyridina-1(7,3)-indola-6(3,5)-pyrazola-9(3,1)-naphthalenacyclotridecaphane-1^2-carboxylic acid]	< 6.00
Cc1c2c(nn1C)CSCc1cc([nH]n1)CSc1cc(c3ccccc3c1)OCCCc1c(C(=O)O)n(C)c3c-2c(Cl)ccc13 [Example 11A, (Z)-1^6-Chloro-1^1,2^1,2^5-trimethyl-1^1H,2^1H,6^1H-10-oxa-4,8-dithia-1(7,3)-indola-2(4,3),6(3,5)-dipyrazola-9(3,1)-naphthalenacyclotridecaphane-1^2-carboxylic acid]	< 6.00
Cc1c2c(nn1C)CSCc1cc(n(C)n1)CSc1cc(c3cc(Cl)ccc3c1)OCCCc1c(C(=O)O)n(C)c3c-2c(Cl)ccc13 [Example 12A, (Z)-1^6,9^7-Dichloro-1^1,2^1,2^5,6^1-tetramethyl-1^1H,2^1H,6^1H-10-oxa-4,8-dithia-1(7,3)-indola-2(4,3),6(3,5)-dipyrazola-9(3,1)-naphthalenacyclotridecaphane-1^2-carboxylic acid]	6.00 to 7.00
Cc1c2c(nn1C)CSCc1cc(n(C)n1)CSc1cc(c3ccccc3c1)OCCCc1c(C(=O)O)n(C)c3c-2c(Cl)cc(Cl)c13 [Example 13A, (Z)-1^4,1^6-dichloro-1^1,2^1,2^5,6^1-tetramethyl-1^1H,2^1H,6^1H-10-oxa-4,8-dithia-1(7,3)-indola-2(4,3),6(3,5)-dipyrazola-9(3,1)-naphthalenacyclotridecaphane-1^2-carboxylic acid]	< 6.00
Cc1c2c(nn1C)CSCc1cc(n(C)n1)CSc1cc(c3ccccc3c1)OCCCc1c(C(=O)O)n(C)c3c-2c(F)ccc13 [Example 14B, (Z)-1^6-Fluoro-1^1,2^1,2^5,6^1-tetramethyl-1^1H,2^1H,6^1H-10-oxa-4,8-dithia-1(7,3)-indola-2(4,3),6(3,5)-dipyrazola-9(3,1)-naphthalenacyclotridecaphane-1^2-carboxylic acid]	< 6.00
Cn1nc2cc1CCc1cc(c3ccccc3c1)OCCCc1c(C(=O)O)n(C)c3c(c(Cl)ccc13)-c1c(nn3c1CCC3)CNC2 [Example 26B, (Z)-1^6-chloro-1^1,6^1-dimethyl-2^5,2^6-dihydro-1^1H,2^4H,6^1H-10-oxa-4-aza-1(7,3)-indola-2(3,2)-pyrrolo[1,2-b]pyrazola-6(3,5)-pyrazola-9(3,1)-naphthalenacyclotridecaphane-1^2-carboxylic acid]	< 6.00
(Z)-1^6-Fluoro-6^1-isobutyl-1^1,2^1,2^3-trimethyl-1^1H,2^1H,6^1H-10-oxa-4,8-dithia-1(7,3)-indola-2(4,5),6(3,5)-dipyrazola-9(3,1)-naphthalenacyclotridecaphane-1^2-carboxylic acid [Example 18B]	6.00 to 7.00
(Z)-2^5-(tert-Butoxycarbonyl)-1^6-chloro-1^1,6^1-dimethyl-2^4,2^5,2^6,2^7-tetrahydro-1^1H,6^1H-10-oxa-4,8-dithia-2(3,2)-pyrazolo[1,5-a]pyrazina-1(7,3)-indola-6(3,5)-pyrazola-9(3,1)-naphthalenacyclotridecaphane-1^2-carboxylic acid [Example 22A]	6.00 to 7.00
(Z)-2^5-(tert-Butoxycarbonyl)-1^6-chloro-1^1,6^1-dimethyl-2^4,2^5,2^6,2^7-tetrahydro-1^1H,6^1H-10-oxa-4,8-dithia-2(3,2)-pyrazolo[1,5-a]pyrazina-1(7,3)-indola-6(3,5)-pyrazola-9(3,1)-naphthalenacyclotridecaphane-1^2-carboxylic acid [Example 22B]	< 6.00
(Z)-6^1-Ethyl-1^6-fluoro-1^1,2^1,2^3-trimethyl-1^1H,2^1H,6^1H-10-oxa-4,8-dithia-1(7,3)-indola-2(4,5),6(3,5)-dipyrazola-9(3,1)-naphthalenacyclotridecaphane-1^2-carboxylic acid [Example 15B]	< 6.00

Same assay, conditions: Homo sapiens, NCI-H929, 72 h, 72 h of compound treatment

Molecule	pIC50
CO[C@H]1/C=C/C[C@H](C)[C@@H](C)S(=O)(=O)NC(=O)c2ccc3c(c2)N(C[C@@H]2CC[C@H]21)C[C@@]1(CCCc2cc(Cl)ccc21)CO3 [AMG176, reference compound]	6.00 to 7.00
Cc1c2c(nn1C)CSCc1cc(n(C)n1)CSc1cc(c3ccccc3c1)OCCCc1c(C(=O)O)n(C)c3c-2c(Cl)ccc13 [AZD5991, reference compound]	> 7.00
Cc1[nH]nc2c1-c1c(Cl)ccc3c(c(C(=O)O)n(C)c13)CCCOc1cc(cc3ccccc13)SCc1cc(nn1C(C)C)CSC2 [Example 9B, (Z)-1^6-Chloro-6^1-isopropyl-1^1,2^5-dimethyl-1^1H,2^1H,6^1H-10-oxa-4,8-dithia-1(7,3)-indola-2(4,3),6(3,5)-dipyrazola-9(3,1)-naphthalenacyclotridecaphane-1^2-carboxylic acid]	< 6.00
Cc1nn(C23CC(C2)C3)c2c1-c1c(Cl)ccc3c(c(C(=O)O)n(C)c13)CCCOc1cc(cc3ccccc13)SCc1cc(n[nH]1)CSC2 [Example 21A, (Z)-2^1-(Bicyclo[1.1.1]pentan-1-yl)-1^6-chloro-1^1,2^3-dimethyl-1^1H,2^1H,6^1H-10-oxa-4,8-dithia-1(7,3)-indola-2(4,5),6(3,5)-dipyrazola-9(3,1)-naphthalenacyclotridecaphane-1^2-carboxylic acid]	< 6.00
Cn1nc2cc1CSc1cc(c3ccccc3c1)OCCCc1c(C(=O)O)n(C)c3c(c(Cl)ccc13)-c1c(nn3c1CNCC3)CSC2 [Example 23B, (Z)-1^6-Chloro-1^1,6^1-dimethyl-2^4,2^5,2^6,2^7-tetrahydro-1^1H,6^1H-10-oxa-4,8-dithia-2(3,2)-pyrazolo[1,5-a]pyrazina-1(7,3)-indola-6(3,5)-pyrazola-9(3,1)-naphthalenacyclotridecaphane-1^2-carboxylic acid]	6.00 to 7.00
CC(=O)N1CCn2nc3c(c2C1)-c1c(Cl)ccc2c(c(C(=O)O)n(C)c12)CCCOc1cc(cc2ccccc12)SCc1cc(nn1C)CSC3 [Example 24A, (Z)-2^5-Acetyl-1^6-chloro-1^1,6^1-dimethyl-2^4,2^5,2^6,2^7-tetrahydro-1^1H,6^1H-10-oxa-4,8-dithia-2(3,2)-pyrazolo[1,5-a]pyrazina-1(7,3)-indola-6(3,5)-pyrazola-9(3,1)-naphthalenacyclotridecaphane-1^2-carboxylic acid]	6.00 to 7.00
CN1CCn2nc3c(c2C1)-c1c(Cl)ccc2c(c(C(=O)O)n(C)c12)CCCOc1cc(cc2ccccc12)SCc1cc(nn1C)CSC3 [Example 25A, (Z)-1^6-chloro-1^1,2^5,6^1-trimethyl-2^4,2^5,2^6,2^7-tetrahydro-1^1H,6^1H-10-oxa-4,8-dithia-2(3,2)-pyrazolo[1,5-a]pyrazina-1(7,3)-indola-6(3,5)-pyrazola-9(3,1)-naphthalenacyclotridecaphane-1^2-carboxylic acid]	6.00 to 7.00
Cn1nc2cc1CSc1cc(c3ccccc3c1)OCCCc1c(C(=O)O)n(C)c3c(c(Cl)ccc13)-c1c(nn3c1CCC3)CNC2 [Example 26A]	6.00 to 7.00

These molecules were tested against Mcl-1 (Homo sapiens, UniProt Q07820) (assay: Mcl-1 Homogeneous Time Resolved Fluorescence (HTRF) binding assay). Settings: HTRF; 4 nM Mcl-1, 100 nM FAM-Bak peptide; 10-dose, singlicate; read-out: Mcl-1 IC50.
Mcl-1, sequence (Q07820 whole entry): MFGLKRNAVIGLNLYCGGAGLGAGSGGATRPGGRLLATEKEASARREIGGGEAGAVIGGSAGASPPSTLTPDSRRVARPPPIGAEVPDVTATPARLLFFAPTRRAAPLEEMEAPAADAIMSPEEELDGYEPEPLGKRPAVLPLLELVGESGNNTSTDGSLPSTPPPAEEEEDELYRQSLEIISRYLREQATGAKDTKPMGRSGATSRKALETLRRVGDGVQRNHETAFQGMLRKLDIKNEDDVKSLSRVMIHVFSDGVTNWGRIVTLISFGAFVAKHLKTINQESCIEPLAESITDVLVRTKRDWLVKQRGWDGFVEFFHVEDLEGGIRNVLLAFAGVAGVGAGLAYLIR

Molecule	pIC50
Cn1nc2cc1CSc1cc(c3ccccc3c1)OCCCc1c(C(=O)O)n(C)c3c(c(Cl)ccc13)-c1c(nn(C)c1C#N)CSC2 (single isomer, unassigned) [Example 1A, (Z)-1^6-Chloro-2^5-cyano-1^1,2^1,6^1-trimethyl-1^1H,2^1H,6^1H-10-oxa-4,8-dithia-1(7,3)-indola-2(4,3),6(3,5)-dipyrazola-9(3,1)-naphthalenacyclotridecaphane-1^2-carboxylic acid]	> 8.00
Cn1nc2cc1CSc1cc(c3ccccc3c1)OCCCc1c(C(=O)O)n(C)c3c(c(Cl)ccc13)-c1c(nn(C)c1C#N)CSC2 (single isomer, unassigned) [Example 1B, (Z)-1^6-Chloro-2^5-cyano-1^1,2^1,6^1-trimethyl-1^1H,2^1H,6^1H-10-oxa-4,8-dithia-1(7,3)-indola-2(4,3),6(3,5)-dipyrazola-9(3,1)-naphthalenacyclotridecaphane-1^2-carboxylic acid]	< 7.00
Cn1nc2cc1CSc1cc(c3ccccc3c1)OCCCc1c(C(=O)O)n(C)c3c(c(Cl)ccc13)-c1c(nn3c1CCCC3)CSC2 (single isomer, unassigned) [Example 2A, (Z)-1^6-Chloro-1^1,6^1-dimethyl-2^4,2^5,2^6,2^7-tetrahydro-1^1H,6^1H-10-oxa-4,8-dithia-2(3,2)-pyrazolo[1,5-a]pyridina-1(7,3)-indola-6(3,5)-pyrazola-9(3,1)-naphthalenacyclotridecaphane-1^2-carboxylic acid]	> 8.00
Cn1nc2cc1CSc1cc(c3ccccc3c1)OCCCc1c(C(=O)O)n(C)c3c(c(Cl)ccc13)-c1c(nn3c1CCCC3)CSC2 (single isomer, unassigned) [Example 2B, (Z)-1^6-Chloro-1^1,6^1-dimethyl-2^4,2^5,2^6,2^7-tetrahydro-1^1H,6^1H-10-oxa-4,8-dithia-2(3,2)-pyrazolo[1,5-a]pyridina-1(7,3)-indola-6(3,5)-pyrazola-9(3,1)-naphthalenacyclotridecaphane-1^2-carboxylic acid]	7.00 to 8.00
Cc1[nH]nc2c1-c1c(F)ccc3c(c(C(=O)O)n(C)c13)CCCOc1cc(cc3ccccc13)SCc1cc(nn1C(C)C)CSC2 (single isomer, unassigned) [Example 7B, (Z)-1^6-Fluoro-6^1-isopropyl-1^1,2^5-dimethyl-1^1H,2^1H,6^1H-10-oxa-4,8-dithia-1(7,3)-indola-2(4,3),6(3,5)-dipyrazola-9(3,1)-naphthalenacyclotridecaphane-1^2-carboxylic acid]	> 8.00
